The numbers were not newly measured in patent US20250000913A1, “SALMONELLA ENGINEERED FOR NONTOXIC COLONIZATION OF TUMORS” (priority 2021, published 2025), which cites them from elsewhere.

The conditions of data set [1]: in vivo.
The conditions of data set [2]: mouse, in vivo.

Turning to `COc1cc(C(=O)c2ccc(-c3csc(NC(=O)[C@@H](N)C(C)C)n3)cc2-n2cncn2)cc(OC)c1OC.Cl` [CKD-516], the “half-life of circulating CKD-516” value in data set [1] is on record as “about 5 hours”.

As for `COc1cccc2c1C(=O)c1c(O)c3c(c(O)c1C2=O)C[C@@](O)(C(=O)CO)C[C@@H]3O[C@H]1C[C@H](N)[C@H](O)[C@H](C)O1` [doxorubicin], in data set [2], the “day on which weight gain resumed” value is 21 days and the weight loss entry is given as “over 25%”.
